Key:
[1] = target: hCA II (Homo sapiens, UniProt P00918); test: biochemical
[2] = target: T1, hCA XII (Homo sapiens, UniProt O43570); test: stop-flow CA inhibition assay, hCA XII; conditions: for S(I/XII) selectivity: ratio Ki hCA I / Ki hCA XII; for S(II/XII) selectivity: ratio Ki hCA II / Ki hCA XII
[3] = target: T1, hCA XII; test: biochemical
[4] = target: hCA I (Homo sapiens, UniProt P00915); test: biochemical
[5] = target: T2, hCA IX (Homo sapiens, UniProt Q16790); test: biochemical
[6] = target: T2, hCA IX; test: stop-flow CA inhibition assay, hCA IX; conditions: for S(I/IX) selectivity: ratio Ki hCA I / Ki hCA IX; for S(II/IX) selectivity: ratio Ki hCA II / Ki hCA IX

T1 sequence (O43570 25-354): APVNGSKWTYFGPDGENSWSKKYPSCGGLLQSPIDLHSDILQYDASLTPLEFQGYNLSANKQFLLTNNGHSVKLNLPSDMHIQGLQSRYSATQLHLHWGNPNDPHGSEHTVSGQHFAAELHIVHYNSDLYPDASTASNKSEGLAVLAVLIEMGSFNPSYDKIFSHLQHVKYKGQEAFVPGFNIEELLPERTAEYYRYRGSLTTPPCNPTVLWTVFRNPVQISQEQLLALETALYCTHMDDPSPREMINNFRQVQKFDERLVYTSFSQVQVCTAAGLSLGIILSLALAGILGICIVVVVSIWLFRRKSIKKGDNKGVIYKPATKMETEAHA
hCA I, sequence (P00915 whole entry): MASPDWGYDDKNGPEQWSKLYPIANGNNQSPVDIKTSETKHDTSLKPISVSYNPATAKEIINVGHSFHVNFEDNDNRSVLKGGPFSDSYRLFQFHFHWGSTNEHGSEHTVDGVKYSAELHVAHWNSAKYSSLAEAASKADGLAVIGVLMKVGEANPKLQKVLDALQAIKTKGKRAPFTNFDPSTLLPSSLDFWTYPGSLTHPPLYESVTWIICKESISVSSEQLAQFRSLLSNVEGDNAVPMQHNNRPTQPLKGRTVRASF

NS(=O)(=O)c1ccc(NC(=O)NC(=O)c2ccccc2)cc1 [Compound 12, N-[(4-Sulfamoylphenyl)carbamoyl]benzamide]
Ki [1]: 0.209 µM | S(I/XII) selectivity [2]: 14.84 | S(II/XII) selectivity [2]: 3.27 | Ki [3]: 0.0639 µM | Ki [4]: 0.949 µM | Ki [5]: 0.208 µM | S(I/IX) selectivity [6]: 4.57 | S(II/IX) selectivity [6]: 1.01 | melting point: 262 to 264 °C

CCCCCCNC(=O)Nc1ccc(S(N)(=O)=O)cc1 [Compound 11, 4-(3-Hexylureido)benzenesulfonamide]
melting point: 202 to 203 °C

NS(=O)(=O)c1ccc(NC(=O)Nc2cccc(F)c2)cc1 [Compound 7, 4-[3-(3-Fluorophenyl)ureido]benzenesulfonamide]
melting point: 240 to 241 °C

CCOC(=O)c1ccc(NC(=O)Nc2ccc(S(N)(=O)=O)cc2)cc1 [Compound 13, Ethyl 4-[3-(4-sulfamoylphenyl)ureido]benzoate]
melting point: 261 to 263 °C

COc1ccc(-c2ccccc2)cc1NC(=O)Nc1ccc(S(N)(=O)=O)cc1 [Compound 4]
Ki [1]: 5.03 µM | Ki [4]: 6.65 µM | melting point: 271 to 272 °C

NS(=O)(=O)c1ccc(NC(=O)Nc2ccccc2Cc2ccccc2)cc1 [Compound 3]
melting point: 219 to 221 °C

COc1cccc(NC(=O)Nc2ccc(S(N)(=O)=O)cc2)c1 [Compound 6, 4-[3-(3-Methoxyphenyl)ureido]benzenesulfonamide]
Ki [3]: 0.0904 µM | Ki [5]: 0.21 µM

COc1ccc(NC(=O)Nc2ccc(S(N)(=O)=O)cc2)cc1 [Compound 5]
melting point: 227 to 229 °C

NS(=O)(=O)c1ccc(NC(=O)Nc2ccc(Cc3ccccc3)cc2)cc1 [Compound 2, 4-[3-(4-Benzylphenyl)ureido]benzenesulfonamide]
melting point: 230 to 232 °C

NS(=O)(=O)c1ccc(NC(=O)Nc2cc(Cl)ccc2Oc2ccccc2)cc1 [Compound 15, 4-[3-(5-Chloro-2-phenoxyphenyl)ureido]benzenesulfonamide]
melting point: 209 °C

NS(=O)(=O)c1ccc(NC(=O)Nc2cccc3ccccc23)cc1 [Compound 1, 4-[3-(Naphthalen-1-yl)ureido]benzenesulfonamide]
Ki [1]: 0.0335 µM | S(I/XII) selectivity [2]: 15.66 | S(II/XII) selectivity [2]: 2.16 | Ki [3]: 0.0155 µM | Ki [4]: 0.243 µM | Ki [5]: 0.0429 µM | S(I/IX) selectivity [6]: 5.66 | S(II/IX) selectivity [6]: 0.78

CC(C)NC(=O)Nc1ccc(S(N)(=O)=O)cc1 [Compound 9, 4-(3-Isopropylureido)benzenesulfonamide]
Ki [3]: 0.0459 µM | Ki [4]: 0.448 µM | Ki [5]: 0.184 µM | melting point: 221 to 223 °C

CCCCNC(=O)Nc1ccc(S(N)(=O)=O)cc1 [Compound 10, 4-(3-Butylureido)benzenesulfonamide]
melting point: 194 to 196 °C

CCNC(=O)Nc1ccc(S(N)(=O)=O)cc1 [Compound 8, 4-(3-Ethylureido)benzenesulfonamide]
melting point: 229 to 231 °C

NS(=O)(=O)c1ccc(NC(=O)Nc2ccc(C(=O)O)cc2)cc1 [Compound 14, 4-[3-(4-Sulfamoylphenyl)ureido]benzoic acid]
melting point: 310 to 313 °C

Source: PMC10707797, “Ureidobenzenesulfonamides as Selective Carbonic Anhydrase I, IX, and XII Inhibitors” (Molecules, 2023)
